Our source for the Activity values is ChEMBL document CHEMBL5325431, “Synthesis of thieno[3,2-e]pyrrolo[1,2-a]pyrimidine derivatives and their precursors containing 2-aminothiophenes fragments as anticancer agents for therapy of pulmonary metastatic melanoma” (Eur J Med Chem, 2023).

Calls of active or inactive are those of the source. The calls are words filed in the database; no cut-off is given here.

Data set [1] has as its system B16-F10. The data set is described as follows: Induction of apoptosis in mouse B16-F10 cells assessed as early apoptotic cells at 10 uM measured after 48 hrs by Annexin V-FITC/7-AAD staining based flow cytometric analysis relative to control. It counts as functional.
In data set [2] the test system is B16-F10. The data set is described as follows: Cytotoxicity against mouse B16-F10 cells assessed as reduction in cell viability at 0.2 to 1.5 uM incubated for 24 hrs by alamarblue staining based assay relative to control. It counts as functional. Particulars: dose 0.2-1.5 µM.
In data set [3] the test system is B16-F10. The data set is described as follows: Induction of apoptosis in mouse B16-F10 cells assessed as early apoptotic cells at 5 uM measured after 48 hrs by Annexin V-FITC/7-AAD staining based flow cytometric analysis relative to control. It counts as functional.
Data set [4] relates to B16-F10. Nature of the data set: Induction of apoptosis in mouse B16-F10 cells assessed as necrotic cells at 5 uM measured after 48 hrs by Annexin V-FITC/7-AAD staining based flow cytometric analysis relative to control. It counts as functional.
Data set [5] concerns B16-F10. Nature of the data set: Induction of apoptosis in mouse B16-F10 cells assessed as late apoptotic cells at 20 uM measured after 48 hrs by Annexin V-FITC/7-AAD staining based flow cytometric analysis relative to control. It counts as functional.
For data set [6], the system named is B16-F10. Nature of the data set: Induction of apoptosis in mouse B16-F10 cells assessed as late apoptotic cells at 10 uM measured after 48 hrs by Annexin V-FITC/7-AAD staining based flow cytometric analysis relative to control. The format is functional.
Data set [7] concerns B16-F10. Nature of the data set: Cytotoxicity against mouse B16-F10 cells assessed as reduction in cell viability at 8.3 uM incubated for 24 hrs by alamarblue staining based assay relative to control. It counts as functional.
Data set [8] is described as follows: Toxicity in C57BL/6 mouse implanted with mouse B16-F10 cells assessed as spleen damage at 4.6 to 42 mg/kg, ip by H and E staining based analysis. The format is organism-based. Particulars: in vivo, dose 4.6-42 mg/kg.
Data set [9] concerns B16-F10. Nature of the data set: Cytotoxicity against mouse B16-F10 cells assessed as reduction in cell viability at 5.5 uM incubated for 24 hrs by alamarblue staining based assay relative to control. The format is functional.
Data set [10] concerns B16-F10. Nature of the data set: Induction of apoptosis in mouse B16-F10 cells assessed as late apoptotic cells at 15 uM measured after 48 hrs by Annexin V-FITC/7-AAD staining based flow cytometric analysis relative to control. The format is functional.
Data set [11] concerns B16-F10. Nature of the data set: Cytotoxicity against mouse B16-F10 cells assessed as cell death by measuring increase in red fluorescence at 0.5 to 10 uM by calcein AM/PI staining based confocal laser scanning microscopy analysis. The format is functional. As to conditions: dose 0.5-10 µM.
The subject of data set [12] is B16-F10. The data set is described as follows: Cytotoxicity against mouse B16-F10 cells assessed as reduction in cell viability at 1.5 uM incubated for 24 hrs by alamarblue staining based assay relative to control. It counts as functional.
Data set [13] deals with B16-F10. The data set is described as follows: Cytotoxicity against mouse B16-F10 cells assessed as reduction in cell viability at 8.31 uM incubated for 24 hrs by alamarblue staining based assay relative to control. It counts as functional.

Regarding `CCOC(=O)c1c(N2C(N)=C(C#N)C(=O)/C2=C\C(=O)c2ccc(C)cc2)sc2c1CCCCC2`, the Activity in the data set on B16-F10 [1] amounted to 1.5%; in the data set with B16-F10 [2], 40%; with B16-F10 [3] it was 1.4%; with B16-F10 [4], 32.8%; in the data set on B16-F10 [5] it was 96.5%; with B16-F10 [6], 75.6%. The Activity in the data set with B16-F10 [7] is listed as 48%; in data set [8], “Non-Toxic”; in the data set with B16-F10 [9], 20%; in the data set on B16-F10 [10] it was 96.1%. The result in the data set with B16-F10 [11] was Active.

Regarding `CCOC(=O)c1c(NC(=C\C(=O)c2ccc(OC)cc2)/C([O-])=C(\C#N)C(N)=O)sc2c1CCCC2.[K+]`, the Activity with B16-F10 [1] is listed as 0.3%; with B16-F10 [3], 2.2%; in the data set on B16-F10 [4], 48.5%; in the data set with B16-F10 [5], 95.1%; with B16-F10 [6], 85.3%; in data set [8], “Non-Toxic”. In addition, the Activity is roughly 80% with B16-F10 [12], 20% in the data set with B16-F10 [13] and 94.3% in the data set with B16-F10 [10]. Moreover, the result in the data set with B16-F10 [11] was Active.

For `COc1ccc(C(=O)/C=C2\C(=O)C(C#N)=C3NC(=O)c4c(sc5c4CCCCC5)N32)cc1`, the Activity in the data set on B16-F10 [1] is reported as 0.5%; with B16-F10 [2], 90%; in the data set with B16-F10 [3], 2.8%; in the data set with B16-F10 [4], 3.2%; with B16-F10 [5] it was 92%; in the data set on B16-F10 [6], 88.6%. For the same molecule, the values for the Activity result (in data set [8]; with B16-F10 [9]; in the data set on B16-F10 [10]) were “Non-Toxic”, 20% and 91.7%, respectively. Also, the outcome in the data set on B16-F10 [11] was Active.
